One assay concerns the target HLA-A2 (Homo sapiens, UniProt P04439, D140Y/D185E/D98H/E176V/E277Q/G131W/G231S/I119V/I121R/I166T/I218V/L10V/L300P/L318F/N151K/N90K/P208A/P217A/Q86G/Q94H/R138H/R169H/T345S). The settings on record: prediction in US20150306197 A1 / US20110142842 A1, not tested further; cited from earlier work.
The test system of assay [1] is advanced non-resectable HCC. The settings on record: patients with advanced non-resectable HCC; cited from earlier work.
Another assay has as its system HLA-A*02. The assay can be described thus: MHC binding assay by UV-ligand exchange and beta2m ELISA, HLA-A*02. The settings on record: binding to HLA-A*02 ranged by peptide exchange yield (UV-ligand exchange, β2m ELISA). Further details: species or system human. The text has this: MHC Binding Assays Candidate peptides for T cell based therapies according to the present invention were further tested for their MHC binding capacity (affinity). The individual peptide-MHC complexes were produced by UV-ligand exchange, where a UV-sensitive peptide is cleaved upon UV-irradiation, and exchanged with the peptide of interest as analyzed. Only peptide candidates that can effectively bind and stabilize the peptide-receptive MHC molecules prevent dissociation of the MHC complexes. To determine the yield of the exchange reaction, an ELISA was performed based on the detection of the light chain (β2m) of stabilized MHC complexes. The assay was performed as generally described in Rodenko et al. (Rodenko et al., 2006).
96 well MAXISorp plates (NUNC) were coated over night with 2 ug/ml streptavidin in PBS at room temperature, washed 4× and blocked for 1 h at 37° C. in 2% BSA containing blocking buffer. Refolded HLA-A*02:01/MLA-001 monomers served as standards, covering the range of 15-500 ng/ml. Peptide-MHC monomers of the UV-exchange reaction were diluted 100 fold in blocking buffer. Samples were incubated for 1 h at 37° C., washed four times, incubated with 2 ug/ml HRP conjugated anti-β2m for 1 h at 37° C., washed again and detected with TMB solution that is stopped with […]. Absorption was measured at 450 nm. Candidate peptides that show a high exchange yield (preferably higher than 50%, most preferred higher than 75%) are generally preferred for a generation and production of antibodies or fragments thereof, and/or T cell receptors or fragments thereof, as they show sufficient avidity to the MHC molecules and prevent dissociation of the MHC complexes.
(In general: ELISA stands for enzyme-linked immunosorbent assay.)

For another assay, the system named is CD8+ T cells. Description: In vitro T-cell priming assay (aAPCs loaded with peptide/MHC and anti-CD28, multimer staining readout). The format is cell-based, human. To be noted: in vitro immunogenicity of HLA class I peptides. On the procedure:
In an aspect, the peptides are pre-screened for immunogenicity before being included in the warehouse. By way of example, and not limitation, the immunogenicity of the peptides included in the warehouse is determined by a method comprising in vitro T-cell priming through repeated stimulations of CD8+ T cells from healthy donors with artificial antigen presenting cells loaded with peptide/MHC complexes and anti-CD28 antibody.
In order to obtain information regarding the immunogenicity of the TUMAPs of the present invention, the inventors performed investigations using an in vitro T-cell priming assay based on repeated stimulations of CD8+ T cells with artificial antigen presenting cells (aAPCs) loaded with peptide/MHC complexes and anti-CD28 antibody.
In order to perform in vitro stimulations by artificial antigen presenting cells loaded with peptide-MHC complex (pMHC) and anti-CD28 antibody, the inventors first isolated CD8+ T cells from fresh HLA-A*02 leukapheresis products via positive selection using CD8 microbeads (Miltenyi Biotec, Bergisch-Gladbach, Germany) of healthy donors obtained from the University clinics Mannheim, Germany, after informed consent.
PBMCs and isolated CD8+ lymphocytes were incubated in T-cell medium (TCM) until use consisting of RPMI-Glutamax (Invitrogen, Karlsruhe, Germany) supplemented with 10% heat inactivated human AB serum (PAN-Biotech, Aidenbach, Germany), 100 U/ml Penicillin/100 μg/ml Streptomycin (Cambrex, Cologne, Germany), 1 mM sodium pyruvate (CC Pro, Oberdorla, Germany), 20 μg/ml Gentamycin (Cambrex). 2.5 ng/ml IL7 (PromoCell, Heidelberg, Germany) and 10 U/ml IL-2 (Novartis Pharma, Nürnberg, Germany) were also added to the TCM at this step.
Generation of pMHC/anti-CD28 coated beads, T-cell stimulations and readout was performed in a highly defined in vitro system using four different pMHC molecules per stimulation condition and 8 different pMHC molecules per readout condition.
The purified co-stimulatory mouse IgG2a anti human CD28 Ab 9.3 (Jung et al., 1987) was chemically biotinylated using Sulfo-N-hydroxysuccinimidobiotin as recommended by the manufacturer (Perbio, Bonn, Germany). Beads used were 5.6 μm diameter streptavidin coated polystyrene particles (Bangs Laboratories, Illinois, USA).
pMHC used for positive and negative control stimulations were A*0201/MLA-001 (peptide […] (SEQ ID NO. 303) from modified Melan-A/MART-1) and A*0201/DDX5-001 ([…] from DDX5, SEQ ID NO. 304), respectively.
800.000 beads/200 μl were coated in 96-well plates in the presence of 4×12.5 ng different biotin-pMHC, washed and 600 ng biotin anti-CD28 were added subsequently in a volume of 200 μl. Stimulations were initiated in 96-well plates by co-incubating 1×10^6 CD8+ T cells with 2×10^5 washed coated beads in 200 μl TCM supplemented with 5 ng/ml IL-12 (PromoCell) for 3 days at 37° C. Half of the medium was then exchanged by fresh TCM supplemented with 80 U/ml IL-2 and incubating was continued for 4 days at 37° C. This stimulation cycle was performed for a total of three times. For the pMHC multimer readout using 8 different pMHC molecules per condition, a two-dimensional combinatorial coding approach was used as previously described (Andersen et al., 2012) with minor modifications encompassing coupling to 5 different fluorochromes. Finally, multimeric analyses were performed by staining the cells with Live/dead near IR dye (Invitrogen, Karlsruhe, Germany), CD8-FITC antibody clone SK1 (BD, Heidelberg, Germany) and fluorescent pMHC multimers. For analysis, a BD LSRII SORP cytometer equipped with appropriate lasers and filters was used. Peptide specific cells were calculated as percentage of total CD8+ cells. Evaluation of multimeric analysis was done using the FlowJo software (Tree Star, Oregon, USA). In vitro priming of specific multimer+CD8+ lymphocytes was detected by comparing to negative control stimulations.

The values that follow come from patent publication US10143731B2, “Peptides and combination of peptides for use in immunotherapy against various cancers” (immatics biotechnologies GmbH, priority 2015, dated 2018).

Consider “KLFTSVFGV (listed as Homo sapiens) [SEQ ID No. 305]”, for which the “predicted binding to HLA-A2 / HLA-A*0201” value with HLA-A2 is listed as “binding to HLA-A*0201”. Take `CNC(=O)c1cc(Oc2ccc(NC(=O)Nc3ccc(Cl)c(C(F)(F)F)c3)cc2)ccn1` [Sorafenib]: in assay [1], the increase of survival result is reported as “about 3 months”.

Consider “12 (GLLPLLHRA; listed as Homo sapiens) [compound 12]”, for which the Peptide exchange result in the assay on HLA-A*02 is “++++ (> = 75% = ++++)”. For the same compound, the “Wells positive [%]” value with CD8+ T cells is on record as “++++ (> = 70% = ++++)”.
